In patent US5728815A, “Bone and prostate-derived protein factors affecting prostate cancer growth, differentiation, and metastasis” (priority 1994, dated 1998):

Legend:
prostate tumor cell = conditions: both in vitro and in vivo; cited from earlier work
[1] = prevents clinical use in human treatment; cited from earlier work
[2] = system: PSA mRNA in parental LNCaP cells; experiment: PSA gene expression, Northern analysis of PSA mRNA; assay type: cell-based, human; conditions: for Relative PSA mRNA level: 48 h, control defined as 1.0; for steady-state levels of PSA mRNA: parental LNCaP cells, result in words
Procedure: FIG. 6A. The effect of PSA gene expression in parental LNCaP cells treated with a variety of growth factors. The parental LNCaP cells were incubated with agents as indicated (control cells were incubated with T medium containing 2% TCM). Forty-eight hours after treatment, total cellular RNA was prepared and 20 μg of total cellular RNA was subjected to Northern analysis. Relative PSA mRNA levels (in parenthesis) were determined by densitometrical quantification, and the control is defined as 1.0; (A) TGF-α 100 (0.98); TGF-α 10 (1.01); TGF-α 1 (1.15); bFGF 100 (1.22); bFGF 10 (1.04); bFGF 1 (0.97); TGF-β 0.01 (0.72); TGF-β 0.1 (0.84); TGF-β 1 (0.53); NGF 1 (1.13); NGF 100 (1.08),
FIG. 6B. The effect of PSA gene expression in parental LNCaP cells treated with a neuropeptide and a variety of α1 and β2-adrenergic agonists. I, bombesin 100 (0.62); bombesin 10 (0.89); II. isoproterenol 100 (0.51); isoproterenol 10 (1.11); isoproterenol 1 (1.07); III. dibutyryl cAMP 0.01 (1.09); dibutyryl cAMP 0.1 (1.11); dibutyryl cAMP 1.0 (1.23); IV. phenylephrine 1 (1.10); phenylephrine 10 (1.08); phenylephrine 100 (1.14).
Total cellular RNA was prepared from frozen tissues by the 4M guanidinium thiocyanate extraction method (Chomcjymski & Sacchi, 1987). Typical yields of total cellular RNA were about 300 μg/200 mg tissue as quantified spectrophotometrically using 40 μg RNA/A260 unit. RNA was denatured in 50% formamide/18% formaldehyde at 55° C. and fractionated by electrophoresis in a 0.9% denaturing formaldehyde agarose gel. Samples were transferred onto a Zetaprobe membrane (Bio-Rad) by capillary method, and the membrane was then baked for 2 hours at 80° C. The membrane was then prehybridized in the presence of 1M NaCl, 10% dextran sulfate, 1% SDS, and 200 μg/ml salmon sperm DNA for at least 2 hours at 65° C. Hybridization was carried out at 65° C. overnight with a random-primer-labeled probe as indicated. The PSA cDNA, and sequence specific hGK-1 and PSA oligonucleotide probes were obtained from Dr. D. Tindall (Mayo Clinic, Rochester, Minn.) (Lundwall & Lilja, 1987). Finally, the membrane was washed under high stringency conditions (0.5×SSC, 1% SDS at 65° C.). Autoradiograms were prepared by exposing Kodak X-Omat AR film to the membrane at -80° C. with intensifying screens.

## Cc1ccc(C(=O)Nc2ccc(S(=O)(=O)O)c3cc(S(=O)(=O)O)cc(S(=O)(=O)O)c23)cc1NC(=O)c1cccc(NC(=O)Nc2cccc(C(=O)Nc3cc(C(=O)Nc4ccc(S(=O)(=O)O)c5cc(S(=O)(=O)O)cc(S(=O)(=O)O)c45)ccc3C)c2)c1 [suramin]
Prostate tumor cell
  prostate tumor cell growth: inhibit prostate tumor cell growth
[1]
  toxicity in vivo: extreme toxicity

## CC(C)NCC(O)c1ccc(O)c(O)c1 (centres unmarked) [isoproterenol]
[2]; concentration 1 (unit not given)
  Relative PSA mRNA level: 1.07
[2]; concentration 10 (unit not given)
  Relative PSA mRNA level: 1.11
[2]; concentration 100 (unit not given)
  Relative PSA mRNA level: 0.51
[2]
  steady-state levels of PSA mRNA: no apparent increases

## CNC[C@H](O)c1cccc(O)c1 [phenylephrine]
[2]
  steady-state levels of PSA mRNA: no apparent increases

## CCCC(=O)Nc1ncnc2c1ncn2[C@@H]1O[C@@H]2COP(=O)(O)O[C@H]2[C@H]1OC(=O)CCC [dibutyryl cAMP]
[2]; concentration 0.01 (unit not given)
  Relative PSA mRNA level: 1.09
[2]; concentration 0.1 (unit not given)
  Relative PSA mRNA level: 1.11
[2]; concentration 1.0 (unit not given)
  Relative PSA mRNA level: 1.23
[2]
  steady-state levels of PSA mRNA: no apparent increases
